Measured values: patent publication US20120149700A1, “2-CYANOPHENYL FUSED HETEROCYCLIC COMPOUNDS, AND COMPOSTIONS AND USES THEREOF” (priority 2007, published 2012)

Tests used:
P2X2/3 = target: T1, P2X2/3 (Homo sapiens, UniProt P56373+Q9UBL9); experiment: Calcium uptake assay (P2X antagonist assay, inhibition of agonist-induced calcium influx), P2X2/3; format: cell-based; conditions: inhibition of agonist-induced calcium influx in cells expressing the receptor
T1 construct: expressed in transfected cells; host or cells: cell line stably expressing P2X2, stably transfected with P2X3 (e.g. HEK293 or 1321N1)
T1 sequence (Q9UBL9 1-471): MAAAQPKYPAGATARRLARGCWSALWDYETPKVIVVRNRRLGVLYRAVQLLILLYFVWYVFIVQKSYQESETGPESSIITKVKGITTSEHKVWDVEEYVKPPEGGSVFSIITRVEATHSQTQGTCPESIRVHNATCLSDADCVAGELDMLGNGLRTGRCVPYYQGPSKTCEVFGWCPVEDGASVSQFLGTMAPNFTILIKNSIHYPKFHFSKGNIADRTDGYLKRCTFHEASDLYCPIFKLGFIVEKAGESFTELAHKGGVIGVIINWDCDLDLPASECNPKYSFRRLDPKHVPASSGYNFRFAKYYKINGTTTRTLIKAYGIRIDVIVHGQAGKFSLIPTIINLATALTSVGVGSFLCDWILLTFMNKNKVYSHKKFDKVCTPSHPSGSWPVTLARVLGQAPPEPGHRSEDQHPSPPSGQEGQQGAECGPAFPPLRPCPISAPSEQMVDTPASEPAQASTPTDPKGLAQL
T1 sequence (P56373 1-397): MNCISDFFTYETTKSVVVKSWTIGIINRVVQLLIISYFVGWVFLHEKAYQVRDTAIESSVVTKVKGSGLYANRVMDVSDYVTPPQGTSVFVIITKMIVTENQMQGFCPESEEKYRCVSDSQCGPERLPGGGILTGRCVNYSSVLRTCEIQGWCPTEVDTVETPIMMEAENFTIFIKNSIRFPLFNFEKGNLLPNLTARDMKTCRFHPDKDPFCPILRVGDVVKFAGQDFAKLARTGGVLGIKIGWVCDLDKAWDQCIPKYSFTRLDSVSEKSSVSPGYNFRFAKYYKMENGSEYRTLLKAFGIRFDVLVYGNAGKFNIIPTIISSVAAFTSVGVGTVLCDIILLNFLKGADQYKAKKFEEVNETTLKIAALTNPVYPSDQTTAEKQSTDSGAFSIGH
Excerpt: (§1) The human P2X2/3 chimera clone is created as described by Neelands et al, and then cloned into an expression vector as above. Receptors are expressed in cells (e.g., HEK293 or 1321N1 (obtained from the ECACC)) via transient transfection using standard lipid mediated transfection, or by creation of stable transfectants for each receptor. For expression of the P2X2/3 heteromeric receptor, the P2X3 expression vector is stably transfected into a cell line already stably expressing P2X2. P2X2/3 heteromer function is isolated using pharmacological methods. Cell lines are maintained in DMEM+5% Glutamax, the appropriate level of selective antibiotic, and 10% heat inactivated FBS.
(§2) Functional activity of compounds at the P2X receptor is determined by measuring their ability to inhibit agonist-induced calcium influx. Compounds are tested for antagonist activity against the P2X2/3 chimera, the P2X3 homomer, or the P2X2/3 heteromer. At the start of each screening day, the agonist EC50 is determined. Compound % inhibition or IC50s are subsequently determined using a pre-determined agonist concentration (EC50-90 depending on cell line) as a stimulus. The agonists used are αβMeATP, ATP, or other ATP analogs. Compounds may be tested at concentrations ranging from 1 pM to 10 μM.
(§3) To test for antagonist activity, cells expressing the appropriate receptor are seeded onto 96 or 384 well plates 18-24 hours prior to assay. […] Plates are incubated at 37° C. and then equilibrated at room temperature. Antagonism of agonist-induced calcium influx is measured using a fluorescent imaging plate reader (e.g. FLIPR^TETRA, Molecular Devices, Sunnyvale, Calif.). The assay comprises two stages: a pre-treatment phase followed by a treatment phase. Compounds may be tested as follows: For the pre-treatment phase, 50 μL of 3× concentration of test compound in HBSS is added to cells containing 100 μL of dye loading media to achieve a final concentration of 1× test compound. For the treatment phase, at a set interval after pre-treatment (1-30 minutes), 50 μl, of 1× test compound plus 4× agonist solution is added, resulting in a final concentration of 1× compound and 1× agonist. […] Responses are measured as (peak fluorescence after agonist addition) minus (baseline fluorescence prior to treatment). Percent inhibition is calculated as follows: […]
(§4) IC50 values are determined by analyzing dose response data in a 4 parameter logistic fit using GraphPad Prizm.

P2X3 = target: T2, P2X3 (Homo sapiens, UniProt P56373); experiment: Calcium uptake assay (P2X antagonist assay, inhibition of agonist-induced calcium influx), P2X3; format: cell-based; conditions: inhibition of agonist-induced calcium influx in cells expressing the receptor
T2 construct: expressed in transfected cells; host or cells: e.g. HEK293 or 1321N1
T2 sequence (P56373 1-397): T1 sequence (P56373 1-397)
Excerpt: as §1, §2, §3, §4

IC50 (P2X2/3) [nM]	IC50 (P2X3) [nM]	SMILES
324	65	Cc1ccc(N2CCc3ncnc(NCc4cccc(-n5cnnc5)c4)c3C2)c(C#N)c1 [Compound 53, 5-Methyl-2-[4-(3-[1,2,4]triazol-4-yl-benzylamino)-7,8-dihydro-5H-pyrido[4,3-d]pyrimidin-6-yl]-benzonitrile]
92	19	Cc1ccc(N2CCc3ncnc(NCc4ccc(C(F)(F)F)nc4)c3C2)c(C#N)c1 [Compound 1, 5-Methyl-2-{4-[(6-trifluoromethyl-pyridin-3-ylmethyl)-amino]-7,8-dihydro-5H-pyrido[4,3-d]pyrimidin-6-yl}-benzonitrile]
2160	423	Cc1ccc(N2CCc3ncnc(NCc4ccc5cc[nH]c5c4)c3C2)c(C#N)c1 [Compound 81, 2-(4-((1H-Indol-6-yl)methylamino)-7,8-dihydropyrido[4,3-d]pyrimidin-6(5H)-yl)-5-methylbenzonitrile]
92	21	Cc1ccc(N2CCc3ncnc(NCc4ccc(C)c(-n5cncn5)c4)c3C2)c(C#N)c1 [Compound 40, 5-Methyl-2-{4-(4-methyl-3-[1,2,4]triazol-1-yl-benzylamino)-7,8-dihydro-5H-pyrido[4,3-d]pyrimidin-6-yl}-benzonitrile]
11400	85	N#Cc1cc(F)ccc1N1CCc2ncnc(NCc3ccc(C(F)(F)F)nc3)c2C1 [Compound 9, 5-Fluoro-2-{4-[(6-trifluoromethyl-pyridin-3-ylmethyl)-amino]-7,8-dihydro-5H-pyrido[4,3-d]pyrimidin-6-yl}-benzonitrile]
43	13	Cc1ccc(N2CCc3ncnc(N[C@H](CCO)c4ccc(C(F)F)nc4)c3C2)c(C#N)c1 [Compound 22, 2-{4-[(R)-1-(6-Difluoromethyl-pyridin-3-yl)-3-hydroxy-propylamino]-7,8-dihydro-5H-pyrido[4,3-d]pyrimidin-6-yl}-5-methyl-benzonitrile]
> 10000	> 10000	COc1ccc([C@@H](CC(=O)OC(C)(C)C)Nc2ncnc3c2CN(c2ccc(Cl)cc2C#N)CC3)cn1 [Compound 18, (R)-3-[6-(4-Chloro-2-cyano-phenyl)-5,6,7,8-tetrahydro-pyrido[4,3-d]pyrimidin-4-ylamino]-3-(6-methoxy-pyridin-3-yl)-propionic acid tert-butyl ester]
1300	512	Cc1ccc(N2CCc3ncnc(NCc4ccc(C)c(I)c4)c3C2)c(C#N)c1 [Compound 55, 2-[4-(3-Iodo-4-methyl-benzylamino)-7,8-dihydro-5H-pyrido[4,3-d]pyrimidin-6-yl]-5-methyl-benzonitrile]
200	23	COc1ccc([C@@H](CO)Nc2ncnc3c2CN(c2ccc(Cl)cc2C#N)CC3)cn1 [Compound 35, 5-Chloro-2-{4-[(S)-2-hydroxy-1-(6-methoxy-pyridin-3-yl)-ethylamino]-7,8-dihydro-5H-pyrido[4,3-d]pyrimidin-6-yl}-benzonitrile]
136	55	Cc1ccc(N2CCc3ncnc(NC(CCO)c4ccc(C(F)(F)F)nc4)c3C2)c(C#N)c1 (centres unmarked) [Compound 25, 2-{4-[3-Hydroxy-1-(6-trifluoromethyl-pyridin-3-yl)-propylamino]-7,8-dihydro-5H-pyrido[4,3-d]pyrimidin-6-yl}-5-methyl-benzonitrile]
325	78	COc1ccc(CNc2ncnc3c2CN(c2ccc(Br)cc2C#N)CC3)cn1 [Compound 14, 5-Bromo-2-(4-((6-methoxypyridin-3-yl)methylamino)-7,8-dihydropyrido[4,3-d]pyrimidin-6(5H)-yl)benzonitrile]
1810	63	N#Cc1ccccc1N1CCc2ncnc(NCc3ccc(C(F)(F)F)nc3)c2C1 [Compound 10, 2-{4-[(6-Trifluoromethyl-pyridin-3-ylmethyl)-amino]-7,8-dihydro-5H-pyrido[4,3-d]pyrimidin-6-yl}-benzonitrile]
1190	628	CN(C)c1ccc(CNc2ncnc3c2CN(c2ccc(Cl)cc2C#N)CC3)cn1 [Compound 12, 5-Chloro-2-(4-((6-(dimethylamino)pyridin-3-yl)methylamino)-7,8-dihydropyrido[4,3-d]pyrimidin-6(5H)-yl)benzonitrile]
1130	91	N#Cc1cc(Cl)ccc1N1CCc2ncnc(NCc3ncc(C(F)(F)F)cc3Cl)c2C1 [Compound 16, 5-Chloro-2-{4-[(3-chloro-5-trifluoromethyl-pyridin-2-ylmethyl)-amino]-7,8-dihydro-5H-pyrido[4,3-d]pyrimidin-6-yl}-benzonitrile]
842	37	N#Cc1cc(Cl)ccc1N1CCc2ncnc(NCc3ccc(C(F)(F)F)nc3)c2C1 [Compound 4, 5-Chloro-2-{4-[(6-trifluoromethyl-pyridin-3-ylmethyl)-amino]-7,8-dihydro-5H-pyrido[4,3-d]pyrimidin-6-yl}-benzonitrile]
120	37	Cc1ccc(N2CCc3ncnc(NCc4ccc(Cl)c(S(C)(=O)=O)c4)c3C2)c(C#N)c1 [Compound 71, 2-[4-(4-Chloro-3-methanesulfonyl-benzylamino)-7,8-dihydro-5H-pyrido[4,3-d]pyrimidin-6-yl]-5-methyl-benzonitrile]
404	16	N#Cc1cc(Cl)ccc1N1CCc2ncnc(N[C@H](CO)c3ccc(C(F)F)nc3)c2C1 [Compound 72, 5-Chloro-2-[4-[(S)-1-(6-difluoromethyl-pyridin-3-yl)-2-hydroxy-ethylamino]-7,8-dihydro-5H-pyrido[4,3-d]pyrimidin-6-yl]-benzonitrile]
152	29	Cc1ccc(N2CCc3ncnc(NCc4ccc(Cl)cn4)c3C2)c(C#N)c1 [Compound 28, 2-{-4-[(5-Chloro-pyridin-2-ylmethyl)-amino]-7,8-dihydro-5,1-pyrido[4,3-d]pyrimidin-6-yl}-5-methyl-benzonitrile]
82	63	Cc1ccc(N2CCc3ncnc(NCc4ccc(C)c(C#N)c4)c3C2)c(C#N)c1 [Compound 56]
> 10000	1380	COc1ccc([C@@H](CC(=O)O)Nc2ncnc3c2CN(c2ccc(Cl)cc2C#N)CC3)cn1 [Compound 19, (R)-3-[6-(4-Chloro-2-cyano-phenyl)-5,6,7,8-tetrahydro-pyrido[4,3-d]pyrimidin-4-ylamino]-3-(6-methoxy-pyridin-3-yl)-propionic acid]
55	16	Cc1ccc(N2CCc3ncnc(NCc4ccc(C)c(S(C)(=O)=O)c4)c3C2)c(C#N)c1 [Compound 59, 2-{4-(3-Methanesulfonyl-4-methyl-benzylamino)-7,8-dihydro-5H-pyrido[4,3-d]pyrimidin-6-yl}-5-methyl-benzonitrile]

SMILES	IC50 (P2X2/3) [nM]	IC50 (P2X3) [nM]
Cc1ccc(N2CCc3ncnc(NCc4ccc(Cl)nc4)c3C2)c(C#N)c1 [Compound 27, 2-{4-[(6-Chloro-pyridin-3-ylmethyl)-amino]-7,8-dihydro-5H-pyrido[4,3-d]pyrimidin-6-yl}-5-methyl-benzonitrile]	25	11
